As usually defined, the AC50 is the midpoint of the concentration-response curve, whichever way the signal moves.

A value given as a limit tells only on which side of the number the result lay.

In experiment [1] the target is Prostaglandin G/H synthase 1 (Homo sapiens, UniProt P23219). It is filed as functional.
Experiment [2] has as its target T1, Mu-type opioid receptor (Homo sapiens, UniProt P35372).
Another experiment deals with T2, Estrogen receptor (Homo sapiens, UniProt P03372).
T2 sequence (P03372 whole entry): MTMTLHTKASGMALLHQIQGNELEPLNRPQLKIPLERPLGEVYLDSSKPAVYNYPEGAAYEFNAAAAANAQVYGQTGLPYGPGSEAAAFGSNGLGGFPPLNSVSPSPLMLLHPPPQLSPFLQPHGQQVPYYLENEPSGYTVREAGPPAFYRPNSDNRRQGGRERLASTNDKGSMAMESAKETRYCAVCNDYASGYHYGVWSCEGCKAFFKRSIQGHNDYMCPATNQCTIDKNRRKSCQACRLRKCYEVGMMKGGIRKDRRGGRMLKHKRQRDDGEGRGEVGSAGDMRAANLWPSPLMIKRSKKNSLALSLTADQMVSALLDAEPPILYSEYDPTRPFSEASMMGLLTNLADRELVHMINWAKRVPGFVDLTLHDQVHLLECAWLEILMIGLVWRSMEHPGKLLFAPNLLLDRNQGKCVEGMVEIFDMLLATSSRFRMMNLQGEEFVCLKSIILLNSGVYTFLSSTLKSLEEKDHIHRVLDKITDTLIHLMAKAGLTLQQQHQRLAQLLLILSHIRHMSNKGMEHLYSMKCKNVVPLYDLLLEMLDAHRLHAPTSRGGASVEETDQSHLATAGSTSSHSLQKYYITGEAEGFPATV

The target of experiment [3] is 5-hydroxytryptamine receptor 2B (Homo sapiens, UniProt P41595). It counts as functional, cell-based.
5-hydroxytryptamine receptor 2B, sequence (P41595 whole entry): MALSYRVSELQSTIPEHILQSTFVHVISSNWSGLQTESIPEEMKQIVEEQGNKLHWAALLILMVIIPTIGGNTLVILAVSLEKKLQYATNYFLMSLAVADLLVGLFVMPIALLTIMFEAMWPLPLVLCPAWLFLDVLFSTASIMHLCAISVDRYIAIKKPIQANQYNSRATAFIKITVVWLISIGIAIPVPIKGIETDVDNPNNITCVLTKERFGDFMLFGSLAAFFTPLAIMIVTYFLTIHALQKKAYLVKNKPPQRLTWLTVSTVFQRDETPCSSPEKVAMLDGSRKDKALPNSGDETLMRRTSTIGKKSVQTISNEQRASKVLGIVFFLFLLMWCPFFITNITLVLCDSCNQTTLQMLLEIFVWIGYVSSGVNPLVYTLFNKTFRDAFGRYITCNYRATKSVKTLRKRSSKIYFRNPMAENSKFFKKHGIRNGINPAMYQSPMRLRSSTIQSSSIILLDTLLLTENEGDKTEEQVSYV
The next experiment has as its target T3, Glucocorticoid receptor (Homo sapiens, UniProt P04150).
T3 sequence (P04150 whole entry): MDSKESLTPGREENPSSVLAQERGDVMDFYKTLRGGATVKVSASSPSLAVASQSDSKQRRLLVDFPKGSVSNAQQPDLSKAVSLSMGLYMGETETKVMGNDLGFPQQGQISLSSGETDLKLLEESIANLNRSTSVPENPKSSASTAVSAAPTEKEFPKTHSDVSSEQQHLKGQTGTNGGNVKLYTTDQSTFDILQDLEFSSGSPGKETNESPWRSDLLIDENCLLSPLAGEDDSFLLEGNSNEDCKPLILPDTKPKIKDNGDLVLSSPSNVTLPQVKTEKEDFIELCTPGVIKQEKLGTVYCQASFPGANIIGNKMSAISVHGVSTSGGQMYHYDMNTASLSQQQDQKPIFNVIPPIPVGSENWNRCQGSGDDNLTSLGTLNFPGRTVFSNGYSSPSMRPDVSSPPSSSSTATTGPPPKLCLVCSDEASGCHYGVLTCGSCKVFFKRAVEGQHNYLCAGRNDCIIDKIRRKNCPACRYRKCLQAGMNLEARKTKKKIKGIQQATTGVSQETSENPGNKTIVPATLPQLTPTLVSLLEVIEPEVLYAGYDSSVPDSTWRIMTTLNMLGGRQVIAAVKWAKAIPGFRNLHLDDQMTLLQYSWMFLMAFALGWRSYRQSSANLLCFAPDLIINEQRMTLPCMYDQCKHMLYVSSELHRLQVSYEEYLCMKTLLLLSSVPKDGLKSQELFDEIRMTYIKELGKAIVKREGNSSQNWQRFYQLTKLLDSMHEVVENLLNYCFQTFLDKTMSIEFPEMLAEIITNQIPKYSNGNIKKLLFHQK

Experiment [4] addresses T4, Muscarinic acetylcholine receptor M2 (Homo sapiens, UniProt P08172).
T4 sequence (P08172 whole entry): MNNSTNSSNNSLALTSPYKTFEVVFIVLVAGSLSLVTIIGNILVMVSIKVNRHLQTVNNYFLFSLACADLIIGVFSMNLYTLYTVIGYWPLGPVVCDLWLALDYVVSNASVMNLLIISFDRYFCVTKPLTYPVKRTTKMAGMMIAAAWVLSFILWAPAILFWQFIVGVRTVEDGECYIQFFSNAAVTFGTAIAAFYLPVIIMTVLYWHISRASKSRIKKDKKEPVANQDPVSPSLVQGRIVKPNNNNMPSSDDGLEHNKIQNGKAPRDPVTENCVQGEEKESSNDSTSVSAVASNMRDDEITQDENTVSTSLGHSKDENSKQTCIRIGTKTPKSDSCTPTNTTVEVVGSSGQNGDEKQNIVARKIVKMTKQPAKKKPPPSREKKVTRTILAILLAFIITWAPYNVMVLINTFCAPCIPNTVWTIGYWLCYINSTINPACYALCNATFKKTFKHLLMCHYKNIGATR
It is filed as functional, cell-based.

The target in a further experiment is Prothrombin (Homo sapiens, UniProt P00734). It is filed as functional.
Experiment [5] addresses Voltage-dependent L-type calcium channel subunit alpha-1C (Rattus norvegicus, UniProt P22002). It is filed as functional.
The target of the next experiment is T5, Thromboxane A2 receptor (Homo sapiens, UniProt P21731).
T5 sequence (P21731 whole entry): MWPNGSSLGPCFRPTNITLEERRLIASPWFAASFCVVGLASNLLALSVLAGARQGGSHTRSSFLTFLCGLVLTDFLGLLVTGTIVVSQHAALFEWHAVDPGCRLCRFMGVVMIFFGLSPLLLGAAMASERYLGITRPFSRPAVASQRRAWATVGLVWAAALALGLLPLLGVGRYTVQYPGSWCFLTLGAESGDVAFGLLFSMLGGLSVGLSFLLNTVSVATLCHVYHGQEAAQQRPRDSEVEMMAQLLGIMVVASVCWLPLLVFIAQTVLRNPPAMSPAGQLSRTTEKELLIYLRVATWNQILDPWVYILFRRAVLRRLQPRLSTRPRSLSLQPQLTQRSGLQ
It is filed as functional, cell-based.

The target of experiment [6] is T1, Mu-type opioid receptor. Put plainly: biochemical. It is filed as functional.
Experiment [7] deals with Sodium-dependent noradrenaline transporter (Homo sapiens, UniProt P23975).
Sodium-dependent noradrenaline transporter, sequence (P23975 whole entry): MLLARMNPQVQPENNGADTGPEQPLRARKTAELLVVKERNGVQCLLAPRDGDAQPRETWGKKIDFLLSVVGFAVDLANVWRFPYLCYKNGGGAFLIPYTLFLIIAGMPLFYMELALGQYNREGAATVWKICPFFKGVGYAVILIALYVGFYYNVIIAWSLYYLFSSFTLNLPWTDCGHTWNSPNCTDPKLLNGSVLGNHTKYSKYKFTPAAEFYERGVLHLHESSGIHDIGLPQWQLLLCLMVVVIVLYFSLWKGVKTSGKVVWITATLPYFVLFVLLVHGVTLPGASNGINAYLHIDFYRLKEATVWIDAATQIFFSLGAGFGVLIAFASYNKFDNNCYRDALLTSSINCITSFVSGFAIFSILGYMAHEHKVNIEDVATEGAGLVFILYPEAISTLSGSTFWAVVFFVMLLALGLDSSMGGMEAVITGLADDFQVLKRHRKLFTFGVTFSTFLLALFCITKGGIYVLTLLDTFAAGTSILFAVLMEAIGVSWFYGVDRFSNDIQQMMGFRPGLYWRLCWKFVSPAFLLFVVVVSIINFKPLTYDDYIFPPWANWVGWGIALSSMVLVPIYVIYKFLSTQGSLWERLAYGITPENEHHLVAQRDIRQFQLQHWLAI
Another experiment concerns the target Vasopressin V2 receptor (Homo sapiens, UniProt P30518).
Experiment [8] concerns the target T4, Muscarinic acetylcholine receptor M2.
The target in the next experiment is Histamine H3 receptor (Homo sapiens, UniProt Q9Y5N1).
Histamine H3 receptor, sequence (Q9Y5N1 whole entry): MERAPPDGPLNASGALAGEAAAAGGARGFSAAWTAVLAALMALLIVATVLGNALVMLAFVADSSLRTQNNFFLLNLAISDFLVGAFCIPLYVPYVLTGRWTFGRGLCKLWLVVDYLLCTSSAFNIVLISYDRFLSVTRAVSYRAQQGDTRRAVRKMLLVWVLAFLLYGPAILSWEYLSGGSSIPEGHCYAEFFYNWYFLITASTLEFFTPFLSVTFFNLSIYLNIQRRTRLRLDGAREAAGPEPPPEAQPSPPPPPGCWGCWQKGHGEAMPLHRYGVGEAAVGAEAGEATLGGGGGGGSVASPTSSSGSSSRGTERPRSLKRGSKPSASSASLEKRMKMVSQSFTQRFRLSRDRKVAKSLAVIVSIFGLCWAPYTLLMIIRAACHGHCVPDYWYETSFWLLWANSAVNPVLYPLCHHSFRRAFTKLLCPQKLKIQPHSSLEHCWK
In experiment [9] the target is Muscarinic acetylcholine receptor M3 (Homo sapiens, UniProt P20309).
Muscarinic acetylcholine receptor M3, sequence (P20309 whole entry): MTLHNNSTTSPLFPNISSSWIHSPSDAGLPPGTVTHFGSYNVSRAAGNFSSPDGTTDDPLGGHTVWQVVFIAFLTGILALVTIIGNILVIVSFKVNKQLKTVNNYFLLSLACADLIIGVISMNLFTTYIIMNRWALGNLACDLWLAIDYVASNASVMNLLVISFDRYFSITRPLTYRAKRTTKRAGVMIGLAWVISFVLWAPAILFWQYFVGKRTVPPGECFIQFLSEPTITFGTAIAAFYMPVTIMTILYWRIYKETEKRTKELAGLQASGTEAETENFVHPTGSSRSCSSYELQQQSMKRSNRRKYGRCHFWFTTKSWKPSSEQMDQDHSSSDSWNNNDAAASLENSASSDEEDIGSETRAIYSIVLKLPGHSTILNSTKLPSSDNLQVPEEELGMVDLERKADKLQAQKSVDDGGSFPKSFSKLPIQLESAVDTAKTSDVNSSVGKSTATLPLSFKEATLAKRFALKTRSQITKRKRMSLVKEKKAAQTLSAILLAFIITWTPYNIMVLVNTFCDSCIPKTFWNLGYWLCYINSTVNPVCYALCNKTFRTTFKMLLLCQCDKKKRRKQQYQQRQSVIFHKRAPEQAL
Further: assay procedure not described here.

T1 sequence (P35372 whole entry): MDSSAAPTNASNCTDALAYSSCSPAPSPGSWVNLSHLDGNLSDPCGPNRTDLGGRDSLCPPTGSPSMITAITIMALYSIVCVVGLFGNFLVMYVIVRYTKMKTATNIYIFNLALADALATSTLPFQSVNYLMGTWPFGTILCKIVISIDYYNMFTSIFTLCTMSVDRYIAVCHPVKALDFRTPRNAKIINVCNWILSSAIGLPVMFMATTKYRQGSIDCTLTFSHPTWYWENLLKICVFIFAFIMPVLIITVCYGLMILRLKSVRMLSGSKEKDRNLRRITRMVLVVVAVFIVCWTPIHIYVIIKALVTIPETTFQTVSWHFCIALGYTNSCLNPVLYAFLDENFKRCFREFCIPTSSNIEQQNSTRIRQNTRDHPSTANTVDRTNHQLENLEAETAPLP
Prostaglandin G/H synthase 1, sequence (P23219 whole entry): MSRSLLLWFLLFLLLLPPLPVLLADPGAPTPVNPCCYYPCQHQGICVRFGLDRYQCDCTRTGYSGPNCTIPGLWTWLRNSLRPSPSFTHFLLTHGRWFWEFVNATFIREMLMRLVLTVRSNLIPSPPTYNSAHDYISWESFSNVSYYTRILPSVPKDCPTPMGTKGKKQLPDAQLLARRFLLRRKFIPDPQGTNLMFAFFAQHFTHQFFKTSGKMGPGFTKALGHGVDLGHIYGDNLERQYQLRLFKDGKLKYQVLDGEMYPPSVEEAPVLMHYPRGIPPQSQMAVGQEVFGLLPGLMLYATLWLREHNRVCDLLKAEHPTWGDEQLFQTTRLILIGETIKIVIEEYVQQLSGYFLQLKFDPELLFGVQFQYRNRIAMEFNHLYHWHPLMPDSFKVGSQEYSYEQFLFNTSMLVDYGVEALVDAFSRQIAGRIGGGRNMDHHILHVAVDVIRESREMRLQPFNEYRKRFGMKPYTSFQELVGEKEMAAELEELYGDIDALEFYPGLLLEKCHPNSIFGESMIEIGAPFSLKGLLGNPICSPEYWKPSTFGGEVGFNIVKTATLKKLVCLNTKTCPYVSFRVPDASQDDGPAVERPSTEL
Vasopressin V2 receptor, sequence (P30518 whole entry): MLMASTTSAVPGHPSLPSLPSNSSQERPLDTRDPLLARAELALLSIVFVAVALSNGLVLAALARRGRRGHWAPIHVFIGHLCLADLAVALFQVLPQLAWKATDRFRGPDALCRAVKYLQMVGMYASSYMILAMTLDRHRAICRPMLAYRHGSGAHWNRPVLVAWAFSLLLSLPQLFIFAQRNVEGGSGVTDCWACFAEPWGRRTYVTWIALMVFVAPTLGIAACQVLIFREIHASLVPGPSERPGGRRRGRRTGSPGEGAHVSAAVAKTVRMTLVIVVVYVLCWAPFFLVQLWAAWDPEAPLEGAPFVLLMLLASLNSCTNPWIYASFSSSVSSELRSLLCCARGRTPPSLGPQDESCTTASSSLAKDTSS

As to `NC(=O)c1cnccn1` [PYRAZINAMIDE], the AC50 (in experiment [1]; on Mu-type opioid receptor [2]; on Estrogen receptor; in experiment [3]; at Glucocorticoid receptor; in experiment [4]) was above 30 µM each time. Further, the AC50 (at Prothrombin; in [5]; at Thromboxane A2 receptor; at Mu-type opioid receptor [6]; in experiment [7]; on Vasopressin V2 receptor) was above 30 µM each time. In addition, the AC50 (in experiment [8]; on Histamine H3 receptor) was above 30 µM throughout.

Turning to `CN(CCOc1ccc(NS(C)(=O)=O)cc1)CCc1ccc(NS(C)(=O)=O)cc1` [DOFETILIDE], the AC50 was above 10 µM in experiment [9]; above 30 µM in experiment [1]; above 30 µM on Mu-type opioid receptor [2]; above 30 µM at Estrogen receptor; above 30 µM in experiment [3]; above 30 µM on Glucocorticoid receptor. Moreover, the AC50 (in experiment [4]; on Prothrombin; at Thromboxane A2 receptor; at Mu-type opioid receptor [6]; in [7]; on Vasopressin V2 receptor) was above 30 µM throughout. For the same compound, the AC50 in experiment [8] was 6.73 µM; at Histamine H3 receptor it was above 10 µM.

These data come from ChEMBL document CHEMBL5291721, “A preclinical secondary pharmacology resource illuminates target-adverse drug reaction associations of marketed drugs” (Nat Commun, 2023).
